Values quoted from earlier work, collected in US7335681B2, “Amino ceramide-like compounds and therapeutic methods of use” (The Regents of the University of Michigan, priority 2001, dated 2008).

Experiments:
[1] = test system: Ehrlich ascites carcinoma cells
E. coli = details: PDMP treatment
GlcCer = details: in vivo

| SMILES | antitumor effect in mice [1] | adherence of E. coli to mammalian cells (E. coli) | cellular content of PKC (PKC) | tissue levels of GlcCer (GlcCer) |
| --- | --- | --- | --- | --- |
| CCCCCCCCCC(=O)N[C@H](CN1CCOCC1)[C@H](O)c1ccccc1 [PDMP, 1R-phenyl-2R-decanoylamino-3-morpholino-1-propanol] | cure mice of cancer | reduces the adherence | lower the cellular content of PKC | – |
| CN(C)CCCN1c2ccccc2Sc2ccc(Cl)cc21 [chlorpromazine] | – | – | – | lower tissue levels of GlcCer |
